{
  "source": "patent US10933079B2",
  "about": "“Oligonucleotide analogues incorporating 5-aza-cytosine therein” (Astex Pharmaceuticals, Inc., priority 2005, dated 2021)",
  "key": {"[1]": {"conditions": "cited from earlier work"}, "[2]": {"system": "CMV-EE210 cell line containing the epigenetically silenced GFP transgene (CMV promoter)", "experiment": "cell-based GFP assay for DNA methylation (reactivation of silenced GFP transgene)", "description": "The demethylating activity of DpG and GpD di-, tri-, and tetranucleotides were tested in a cell-based GFP (green fluorescent protein) assay. This assay, which is schematically illustrated in FIG. 25, has a GFP gene regulated by the CMV promoter and is sensitive to the methylation of CpG sites within the promoter. A decrease in methylation resulting from exposure to a methylation inhibitor leads to GFP expression and is readily scored. Specifically, the CMV-EE210 cell line containing the epigenetically silenced GFP transgene was used to assay for reactivation of GFP expression by flow cytometry. CMV-EE210 was made by transfecting NIH 3T3 cells with the pTR-UF/UF1/UF2 plasmid (Zolotuhin et al., 1996), which is comprised of pBS(+) (Stratagene, Inc.) containing a cytomegalovirus (CMV) promoter driving a humanized GFP gene adapted for expression in mammalian cells. After transfection, high-level GFP expressing cells were initially selected by FACS analysis and sorting using a MoFlo cytometer (Cytomation, Inc.). Decitabine, potent inhibitor of mammalian DNMT1, was used as a positive control. […] Wells were scored g1 positive if (10%) of viable cells express GFP, g2 positive if 30% of viable cells express GFP and g3 if >75% of the viable cells express GFP. […]"}},
  "data": [
    {"smiles": "Nc1ncn([C@H]2C[C@H](O)[C@@H](CO)O2)c(=O)n1", "note": "[Decitabine, 5-aza-2′-deoxycytidine]", "values": [
      {"measurement": "total urinary excretion", "setting": "[1]; humans", "value": "less than 1 % of the administered dose"},
      {"measurement": "penetration into the cerebrospinal fluid", "setting": "[1]; man, end of a 36-hour intravenous infusion", "value": "14-21 % of the plasma concentration"},
      {"measurement": "GFP Expression Level", "setting": "[2]; CMV-EE210 cells, three days, decitabine at 1 μM, test compound at 30-50 μM, fluorescent microscope scoring", "value": "g3 (g3 if >75% of the viable cells express GFP)"},
      {"measurement": "IC50", "setting": "[2]; GFP 50: dose at which the GFP expression level goes from g3 to g1/2, preliminary screening", "value": 500, "unit": "nM"}
    ]}
  ]
}
